Test results as given in the supplement of paper PMC5303821, “Major sulfonate transporter Soa1 in Saccharomyces cerevisiae and considerable substrate diversity in its fungal family” (Nature Communications, 2017).

Columns and labels:
[1] = system: Ogataea parapolymorpha_XP_013935289; assay: lag phase before growth; higher = slower start of growth; conditions: S. cerevisiae S288C/BY sul1Δ sul2Δ soa1Δ with transporter ortholog inserted at SOA1 locus, sulfur-free B medium, 4% glucose, pH 6.5, sole sulfur source
Procedure: (§1)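 S. cerevisiae sul1Δ sul2Δ soa1Δ strains expressing 20 fungal SOA1 orthologs (or no transporter, 'soa1 del') were grown in liquid sulfur-free B medium, 4% glucose, pH 6.5 (7 mM K2HPO4). The strains were sulfur-starved for 3 days beforehand. Each sulfur compound was the sole sulfur source at 200 µM (sulfate also at 40 mM). OD600 curves of duplicate cultures were averaged and fitted (logistic / Richards, GroFit) to give maximal growth rate, maximal density and lag phase; temperature not stated.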

[2] = system: Saccharomyces cerevisiae_SOA1; assay: as above; conditions: sulfur source concentration 40000 µM; S. cerevisiae S288C/BY sul1Δ sul2Δ soa1Δ with transporter ortholog inserted at SOA1 locus; sulfur-free B medium, 4% glucose, pH 6.5, sole sulfur source
Procedure: as §1

[3] = system: Saccharomyces eubayanus_SOA1; assay: as above; conditions: sulfur source concentration 40000 µM; S. cerevisiae S288C/BY sul1Δ sul2Δ soa1Δ with transporter ortholog inserted at SOA1 locus; sulfur-free B medium, 4% glucose, pH 6.5, sole sulfur source
Procedure: as §1

[4] = system: Saccharomyces uvarum_SOA1; assay: as above; conditions: sulfur source concentration 40000 µM; S. cerevisiae S288C/BY sul1Δ sul2Δ soa1Δ with transporter ortholog inserted at SOA1 locus; sulfur-free B medium, 4% glucose, pH 6.5, sole sulfur source
Procedure: as §1

[5] = system: Aspergillus nidulans_CBF74694; assay: maximal culture density with compound as sole sulfur source (OD600); higher = better growth; conditions: S. cerevisiae S288C/BY sul1Δ sul2Δ soa1Δ with transporter ortholog inserted at SOA1 locus, sulfur-free B medium, 4% glucose, pH 6.5, sole sulfur source
Procedure: as §1

[6] = system: Aspergillus nidulans_XP_660563; assay: as above; conditions: S. cerevisiae S288C/BY sul1Δ sul2Δ soa1Δ with transporter ortholog inserted at SOA1 locus, sulfur-free B medium, 4% glucose, pH 6.5, sole sulfur source
Procedure: as §1

[7] = system: Aspergillus nidulans_XP_661711; assay: as above; conditions: S. cerevisiae S288C/BY sul1Δ sul2Δ soa1Δ with transporter ortholog inserted at SOA1 locus, sulfur-free B medium, 4% glucose, pH 6.5, sole sulfur source
Procedure: as §1

[8] = system: Aspergillus nidulans_XP_661733; assay: as above; conditions: S. cerevisiae S288C/BY sul1Δ sul2Δ soa1Δ with transporter ortholog inserted at SOA1 locus, sulfur-free B medium, 4% glucose, pH 6.5, sole sulfur source
Procedure: as §1

[9] = system: Metarhizium robertsii_XP_007823832; assay: as above; conditions: S. cerevisiae S288C/BY sul1Δ sul2Δ soa1Δ with transporter ortholog inserted at SOA1 locus, sulfur-free B medium, 4% glucose, pH 6.5, sole sulfur source
Procedure: as §1

[10] = system: Ogataea parapolymorpha_XP_013932458; assay: as above; conditions: S. cerevisiae S288C/BY sul1Δ sul2Δ soa1Δ with transporter ortholog inserted at SOA1 locus, sulfur-free B medium, 4% glucose, pH 6.5, sole sulfur source
Procedure: as §1

[11] = system: Saccharomyces cerevisiae_SOA1; assay: as above; conditions: S. cerevisiae S288C/BY sul1Δ sul2Δ soa1Δ with transporter ortholog inserted at SOA1 locus, sulfur-free B medium, 4% glucose, pH 6.5, sole sulfur source
Procedure: as §1

[12] = system: Saccharomyces uvarum_SOA2; assay: as above; conditions: S. cerevisiae S288C/BY sul1Δ sul2Δ soa1Δ with transporter ortholog inserted at SOA1 locus, sulfur-free B medium, 4% glucose, pH 6.5, sole sulfur source
Procedure: as §1

[13] = system: Aspergillus nidulans (IAM 2006)_astA; assay: maximal growth rate with compound as sole sulfur source (OD600 per h); higher = better growth / uptake of the sulfur source; conditions: S. cerevisiae S288C/BY sul1Δ sul2Δ soa1Δ with transporter ortholog inserted at SOA1 locus, sulfur-free B medium, 4% glucose, pH 6.5, sole sulfur source
Procedure: as §1

[14] = system: Aspergillus nidulans_CBF74694; assay: as above; conditions: S. cerevisiae S288C/BY sul1Δ sul2Δ soa1Δ with transporter ortholog inserted at SOA1 locus, sulfur-free B medium, 4% glucose, pH 6.5, sole sulfur source
Procedure: as §1

[15] = system: Aspergillus nidulans_CBF80346; assay: as above; conditions: S. cerevisiae S288C/BY sul1Δ sul2Δ soa1Δ with transporter ortholog inserted at SOA1 locus, sulfur-free B medium, 4% glucose, pH 6.5, sole sulfur source
Procedure: as §1

[16] = system: Aspergillus nidulans_XP_660563; assay: as above; conditions: S. cerevisiae S288C/BY sul1Δ sul2Δ soa1Δ with transporter ortholog inserted at SOA1 locus, sulfur-free B medium, 4% glucose, pH 6.5, sole sulfur source
Procedure: as §1

[17] = system: Aspergillus nidulans_XP_660670; assay: as above; conditions: S. cerevisiae S288C/BY sul1Δ sul2Δ soa1Δ with transporter ortholog inserted at SOA1 locus, sulfur-free B medium, 4% glucose, pH 6.5, sole sulfur source
Procedure: as §1

[18] = system: Aspergillus nidulans_XP_661711; assay: as above; conditions: S. cerevisiae S288C/BY sul1Δ sul2Δ soa1Δ with transporter ortholog inserted at SOA1 locus, sulfur-free B medium, 4% glucose, pH 6.5, sole sulfur source
Procedure: as §1

[19] = system: Aspergillus nidulans_XP_661733; assay: as above; conditions: S. cerevisiae S288C/BY sul1Δ sul2Δ soa1Δ with transporter ortholog inserted at SOA1 locus, sulfur-free B medium, 4% glucose, pH 6.5, sole sulfur source
Procedure: as §1

[20] = system: Aspergillus nidulans_XP_681611; assay: as above; conditions: S. cerevisiae S288C/BY sul1Δ sul2Δ soa1Δ with transporter ortholog inserted at SOA1 locus, sulfur-free B medium, 4% glucose, pH 6.5, sole sulfur source
Procedure: as §1

[21] = system: Fusarium oxysporum_ENH65823; assay: as above; conditions: S. cerevisiae S288C/BY sul1Δ sul2Δ soa1Δ with transporter ortholog inserted at SOA1 locus, sulfur-free B medium, 4% glucose, pH 6.5, sole sulfur source
Procedure: as §1

[22] = system: Metarhizium robertsii_XP_007821441; assay: as above; conditions: S. cerevisiae S288C/BY sul1Δ sul2Δ soa1Δ with transporter ortholog inserted at SOA1 locus, sulfur-free B medium, 4% glucose, pH 6.5, sole sulfur source
Procedure: as §1

[23] = system: Metarhizium robertsii_XP_007822519; assay: as above; conditions: S. cerevisiae S288C/BY sul1Δ sul2Δ soa1Δ with transporter ortholog inserted at SOA1 locus, sulfur-free B medium, 4% glucose, pH 6.5, sole sulfur source
Procedure: as §1

[24] = system: Metarhizium robertsii_XP_007823832; assay: as above; conditions: S. cerevisiae S288C/BY sul1Δ sul2Δ soa1Δ with transporter ortholog inserted at SOA1 locus, sulfur-free B medium, 4% glucose, pH 6.5, sole sulfur source
Procedure: as §1

[25] = system: Ogataea parapolymorpha_XP_013932458; assay: as above; conditions: S. cerevisiae S288C/BY sul1Δ sul2Δ soa1Δ with transporter ortholog inserted at SOA1 locus, sulfur-free B medium, 4% glucose, pH 6.5, sole sulfur source
Procedure: as §1

[26] = system: Ogataea parapolymorpha_XP_013935289; assay: as above; conditions: S. cerevisiae S288C/BY sul1Δ sul2Δ soa1Δ with transporter ortholog inserted at SOA1 locus, sulfur-free B medium, 4% glucose, pH 6.5, sole sulfur source
Procedure: as §1

[27] = system: Ogataea parapolymorpha_XP_013936897; assay: as above; conditions: S. cerevisiae S288C/BY sul1Δ sul2Δ soa1Δ with transporter ortholog inserted at SOA1 locus, sulfur-free B medium, 4% glucose, pH 6.5, sole sulfur source
Procedure: as §1

[28] = system: Saccharomyces cerevisiae_SOA1; assay: as above; conditions: S. cerevisiae S288C/BY sul1Δ sul2Δ soa1Δ with transporter ortholog inserted at SOA1 locus, sulfur-free B medium, 4% glucose, pH 6.5, sole sulfur source
Procedure: as §1

[29] = system: Saccharomyces eubayanus_SOA1; assay: as above; conditions: S. cerevisiae S288C/BY sul1Δ sul2Δ soa1Δ with transporter ortholog inserted at SOA1 locus, sulfur-free B medium, 4% glucose, pH 6.5, sole sulfur source
Procedure: as §1

[30] = system: Saccharomyces eubayanus_SOA2; assay: as above; conditions: S. cerevisiae S288C/BY sul1Δ sul2Δ soa1Δ with transporter ortholog inserted at SOA1 locus, sulfur-free B medium, 4% glucose, pH 6.5, sole sulfur source
Procedure: as §1

[31] = system: Saccharomyces uvarum_SOA1; assay: as above; conditions: S. cerevisiae S288C/BY sul1Δ sul2Δ soa1Δ with transporter ortholog inserted at SOA1 locus, sulfur-free B medium, 4% glucose, pH 6.5, sole sulfur source
Procedure: as §1

[32] = system: Saccharomyces uvarum_SOA2; assay: as above; conditions: S. cerevisiae S288C/BY sul1Δ sul2Δ soa1Δ with transporter ortholog inserted at SOA1 locus, sulfur-free B medium, 4% glucose, pH 6.5, sole sulfur source
Procedure: as §1

[33] = system: soa1 del; assay: as above; conditions: S. cerevisiae S288C/BY sul1Δ sul2Δ soa1Δ with transporter ortholog inserted at SOA1 locus, sulfur-free B medium, 4% glucose, pH 6.5, sole sulfur source
Procedure: as §1

[34] = sulfur source concentration 200 µM
[35] = sulfur source concentration 40000 µM

`O=S(=O)(O)O` [sulfate] was tested, and the “lag phase before growth” value [1, 34] was 25.8 h, the “lag phase before growth” value [1, 35] was 7.95 h and the “lag phase before growth” value [2] was 13.8 h. For the same molecule, the “lag phase before growth” value [3] was 16.8 h, the “lag phase before growth” value [4] was 10.7 h and the maximal culture density [5, 34] was 0.184. It also gave a maximal culture density [5, 35] of 0.208, a maximal culture density [6, 34] of 0.31 and a maximal culture density [6, 35] of 0.315. It also gave a maximal culture density [7, 34] of 0.224, a maximal culture density [7, 35] of 0.382 and a maximal culture density [8, 34] of 0.264. The maximal culture density [8, 35] was 1.57, the maximal culture density [9, 34] was 1.57 and the maximal culture density [9, 35] was 1.63. It also gave a maximal culture density [10, 34] of 0.281, a maximal culture density [10, 35] of 0.343 and a maximal culture density [11, 34] of 0.274. It also gave a maximal culture density [11, 35] of 1.71, a maximal culture density [12, 34] of 0.199 and a maximal culture density [12, 35] of 0.212. The maximal growth rate [13, 34] was 0.0953, the maximal growth rate [13, 35] was 0.102 and the maximal growth rate [14, 34] was 0.00273. It also gave a maximal growth rate [14, 35] of 0.00346, a maximal growth rate [15, 34] of 0.00472 and a maximal growth rate [15, 35] of 0.00348. For the same molecule, the maximal growth rate [16, 34] was 0.00621, the maximal growth rate [16, 35] was 0.00638 and the maximal growth rate [17, 34] was 0.00401. For the same molecule, the maximal growth rate [17, 35] was 0.00492, the maximal growth rate [18, 34] was 0.00398 and the maximal growth rate [18, 35] was 0.00545. The maximal growth rate [19, 34] was 0.00457, the maximal growth rate [19, 35] was 0.0588 and the maximal growth rate [20, 34] was 0.00615. It also gave a maximal growth rate [20, 35] of 0.0061, a maximal growth rate [21, 34] of 0.00376 and a maximal growth rate [21, 35] of 0.0142. The maximal growth rate [22, 34] was 0.00309, the maximal growth rate [22, 35] was 0.00378 and the maximal growth rate [23, 34] was 0.00347. For the same molecule, the maximal growth rate [23, 35] was 0.00386, the maximal growth rate [24, 34] was 0.0813 and the maximal growth rate [24, 35] was 0.088. The maximal growth rate [25, 34] was 0.00477, the maximal growth rate [25, 35] was 0.00353 and the maximal growth rate [26, 34] was 0.0777. It also gave a maximal growth rate [26, 35] of 0.124, a maximal growth rate [27, 34] of 0.00477 and a maximal growth rate [27, 35] of 0.00462. It also gave a maximal growth rate [28, 34] of 0.00588, a maximal growth rate [28, 35] of 0.123 and a maximal growth rate [29, 34] of 0.00395. It also gave a maximal growth rate [29, 35] of 0.0997, a maximal growth rate [30, 34] of 0.00313 and a maximal growth rate [30, 35] of 0.00349. For the same molecule, the maximal growth rate [31, 34] was 0.0032, the maximal growth rate [31, 35] was 0.0989 and the maximal growth rate [32, 34] was 0.00324. The maximal growth rate [32, 35] was 0.00336, the maximal growth rate [33, 34] was 0.00368 and the maximal growth rate [33, 35] was 0.0039.
